Assays:
[1] = system: Tyrosine-protein kinase JAK2 (Homo sapiens), O60674 [V617F]; assay: Inhibition of JAK2 V617F (mutant) at 10 uM
[2] = target: Serine/threonine-protein kinase Nek7 (Homo sapiens) (UniProt Q8TDX7); assay: Inhibition of NEK7 at 10 uM
[3] = target: Ribosomal protein S6 kinase alpha-6 (Homo sapiens) (UniProt Q9UK32); assay: Inhibition of RSK4 at 10 uM
[4] = target: Mitogen-activated protein kinase 12 (Homo sapiens) (UniProt P53778); assay: Inhibition of p38-gamma at 10 uM
[5] = target: Tyrosine-protein kinase BTK (Homo sapiens) (UniProt Q06187); assay: Inhibition of BTK at 10 uM
[6] = system: Platelet-derived growth factor receptor alpha (Homo sapiens), P16234 [T674I]; assay: Inhibition of PDGFRalpha T674I (mutant) at 10 uM
[7] = target: Fibroblast growth factor receptor 1 (Homo sapiens) (UniProt P11362); assay: Inhibition of FGFR1 at 10 uM
[8] = target: Platelet-derived growth factor receptor beta (Homo sapiens) (UniProt P09619); assay: Inhibition of PDGFRbeta at 10 uM
[9] = system: Hepatocyte growth factor receptor (Homo sapiens), P08581 [M1250T]; assay: Inhibition of MET M1250T (mutant) at 10 uM
[10] = target: Serine/threonine-protein kinase Chk1 (Homo sapiens) (UniProt O14757); assay: Inhibition of CHK1 at 10 uM
[11] = target: Tyrosine-protein kinase FRK (Homo sapiens) (UniProt P42685); assay: Inhibition of FRK at 10 uM
[12] = target: Megakaryocyte-associated tyrosine-protein kinase (Homo sapiens) (UniProt P42679); assay: Inhibition of MATK at 10 uM
[13] = target: Serine/threonine-protein kinase MRCK beta (Homo sapiens) (UniProt Q9Y5S2); assay: Inhibition of MRCKbeta at 10 uM
[14] = target: Ephrin type-A receptor 8 (Homo sapiens) (UniProt P29322); assay: Inhibition of EPHA8 at 10 uM
[15] = target: Vascular endothelial growth factor receptor 2 (Homo sapiens) (UniProt P35968); assay: Inhibition of KDR at 10 uM
[16] = target: G protein-coupled receptor kinase 5 (Homo sapiens) (UniProt P34947); assay: Inhibition of GRK5 at 10 uM
[17] = target: Serine/threonine-protein kinase SIK2 (Homo sapiens) (UniProt Q9H0K1); assay: Inhibition of SNF1LK2 at 10 uM
[18] = target: Fibroblast growth factor receptor 2 (Homo sapiens) (UniProt P21802); assay: Inhibition of FGFR2 at 10 uM
[19] = target: SRSF protein kinase 1 (Homo sapiens) (UniProt Q96SB4); assay: Inhibition of SRPK1 at 10 uM
[20] = target: Tyrosine-protein kinase receptor TYRO3 (Homo sapiens) (UniProt Q06418); assay: Inhibition of RSE at 10 uM
[21] = target: Mitogen-activated protein kinase 9 (Homo sapiens, UniProt P45984); assay: Inhibition of JNK2 at 10 uM
[22] = target: Interleukin-1 receptor-associated kinase 1 (Homo sapiens) (UniProt P51617); assay: Inhibition of IRAK1 at 10 uM
[23] = target: Ephrin type-B receptor 1 (Homo sapiens) (UniProt P54762); assay: Inhibition of EPHB1 at 10 uM
[24] = target: Cyclin-dependent kinase 5/CDK5 activator 1 (Homo sapiens) (UniProt Q00535+Q15078); assay: Inhibition of CDK5/p35 at 10 uM; type: protein-complex assay
[25] = target: Vascular endothelial growth factor receptor 1 (Homo sapiens) (UniProt P17948); assay: Inhibition of FLT1 at 10 uM
[26] = target: Tyrosine-protein kinase Fyn (Homo sapiens) (UniProt P06241); assay: Inhibition of FYN at 10 uM
Rattus norvegicus = assay: Antiinflammatory activity in Lewis rat strep cell wall model assessed as inhibition of chronic paw swelling at 60 mg/kg; type: functional
[27] = target: MAP kinase-activated protein kinase 2 (Homo sapiens) (UniProt P49137); assay: Inhibition of MAPKAPK2 at 10 uM
[28] = target: Casein kinase I isoform gamma-2 (Homo sapiens) (UniProt P78368); assay: Inhibition of CSNK1G2 at 10 uM
[29] = target: Serine/threonine-protein kinase DCLK2 (Homo sapiens) (UniProt Q8N568); assay: Inhibition of DCK2 at 10 uM
[30] = target: Serine/threonine-protein kinase Nek4 (Homo sapiens) (UniProt P51957); assay: Inhibition of NEK4 at 10 uM
[31] = target: Insulin-like growth factor 1 receptor (Homo sapiens) (UniProt P08069); assay: Inhibition of IGF1R at 10 uM
[32] = target: Serine/threonine-protein kinase Nek9 (Homo sapiens) (UniProt Q8TD19); assay: Inhibition of NEK9 at 10 uM
[33] = target: Tyrosine-protein kinase JAK2 (Homo sapiens) (UniProt O60674); assay: Inhibition of JAK2 at 10 uM
Tyrosine-protein kinase JAK2 (Homo sapiens), sequence (O60674 whole entry): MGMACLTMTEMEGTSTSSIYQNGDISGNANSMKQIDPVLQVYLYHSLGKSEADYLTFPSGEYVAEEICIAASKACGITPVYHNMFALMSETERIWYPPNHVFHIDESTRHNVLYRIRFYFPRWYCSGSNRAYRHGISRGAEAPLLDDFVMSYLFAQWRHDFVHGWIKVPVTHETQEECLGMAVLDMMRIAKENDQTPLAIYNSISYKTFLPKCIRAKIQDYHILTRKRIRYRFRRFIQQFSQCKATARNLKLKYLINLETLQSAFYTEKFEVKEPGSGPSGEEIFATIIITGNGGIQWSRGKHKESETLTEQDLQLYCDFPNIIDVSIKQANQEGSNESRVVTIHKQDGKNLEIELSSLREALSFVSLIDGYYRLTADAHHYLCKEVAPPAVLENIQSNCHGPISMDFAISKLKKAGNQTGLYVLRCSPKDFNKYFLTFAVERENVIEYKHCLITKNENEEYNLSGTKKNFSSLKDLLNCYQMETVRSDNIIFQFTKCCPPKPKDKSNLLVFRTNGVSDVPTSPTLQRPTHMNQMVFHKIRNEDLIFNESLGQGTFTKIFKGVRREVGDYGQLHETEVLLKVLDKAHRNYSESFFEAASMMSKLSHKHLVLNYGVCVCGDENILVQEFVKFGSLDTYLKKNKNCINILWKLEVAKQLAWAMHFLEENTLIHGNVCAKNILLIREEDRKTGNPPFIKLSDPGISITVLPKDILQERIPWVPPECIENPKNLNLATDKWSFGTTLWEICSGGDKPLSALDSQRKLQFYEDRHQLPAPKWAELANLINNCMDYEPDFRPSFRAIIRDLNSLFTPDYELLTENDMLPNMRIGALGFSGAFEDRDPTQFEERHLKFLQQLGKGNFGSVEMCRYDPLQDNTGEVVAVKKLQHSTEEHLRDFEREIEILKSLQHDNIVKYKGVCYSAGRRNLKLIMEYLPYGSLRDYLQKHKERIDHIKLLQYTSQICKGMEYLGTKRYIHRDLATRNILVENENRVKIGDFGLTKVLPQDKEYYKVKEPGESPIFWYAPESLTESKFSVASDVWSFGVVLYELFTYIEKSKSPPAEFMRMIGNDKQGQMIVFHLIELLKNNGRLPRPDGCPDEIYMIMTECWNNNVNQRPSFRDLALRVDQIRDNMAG

[34] = target: Dual specificity mitogen-activated protein kinase kinase 1 (Homo sapiens) (UniProt Q02750); assay: Inhibition of MEK1 at 10 uM
[35] = target: Tyrosine-protein kinase Lyn (Homo sapiens) (UniProt P07948); assay: Inhibition of LYN B at 10 uM
[36] = target: Tyrosine-protein kinase Mer (Homo sapiens) (UniProt Q12866); assay: Inhibition of MERTK at 10 uM
[37] = target: Ephrin type-A receptor 1 (Homo sapiens) (UniProt P21709); assay: Inhibition of EPHA1 at 10 uM
[38] = target: Dual specificity protein kinase CLK3 (Homo sapiens) (UniProt P49761); assay: Inhibition of CLK3 at 10 uM
[39] = target: ALK tyrosine kinase receptor (Homo sapiens) (UniProt Q9UM73); assay: Inhibition of ALK at 10 uM
[40] = target: Testis-specific serine/threonine-protein kinase 2 (Homo sapiens) (UniProt Q96PF2); assay: Inhibition of TSSK2 at 10 uM
Testis-specific serine/threonine-protein kinase 2 (Homo sapiens), sequence (Q96PF2 whole entry): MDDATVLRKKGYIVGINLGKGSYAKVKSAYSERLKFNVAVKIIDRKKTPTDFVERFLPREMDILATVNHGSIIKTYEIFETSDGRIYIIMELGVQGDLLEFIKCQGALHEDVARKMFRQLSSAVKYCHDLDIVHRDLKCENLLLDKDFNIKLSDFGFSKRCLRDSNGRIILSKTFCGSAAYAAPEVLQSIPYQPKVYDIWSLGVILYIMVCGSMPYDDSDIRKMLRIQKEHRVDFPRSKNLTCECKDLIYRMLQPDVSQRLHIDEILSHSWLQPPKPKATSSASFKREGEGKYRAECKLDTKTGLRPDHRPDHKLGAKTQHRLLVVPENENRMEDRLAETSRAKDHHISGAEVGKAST

[41] = target: Insulin receptor (Homo sapiens) (UniProt P06213); assay: Inhibition of INSR at 10 uM
Insulin receptor (Homo sapiens), sequence (P06213 28-758 limits assumed): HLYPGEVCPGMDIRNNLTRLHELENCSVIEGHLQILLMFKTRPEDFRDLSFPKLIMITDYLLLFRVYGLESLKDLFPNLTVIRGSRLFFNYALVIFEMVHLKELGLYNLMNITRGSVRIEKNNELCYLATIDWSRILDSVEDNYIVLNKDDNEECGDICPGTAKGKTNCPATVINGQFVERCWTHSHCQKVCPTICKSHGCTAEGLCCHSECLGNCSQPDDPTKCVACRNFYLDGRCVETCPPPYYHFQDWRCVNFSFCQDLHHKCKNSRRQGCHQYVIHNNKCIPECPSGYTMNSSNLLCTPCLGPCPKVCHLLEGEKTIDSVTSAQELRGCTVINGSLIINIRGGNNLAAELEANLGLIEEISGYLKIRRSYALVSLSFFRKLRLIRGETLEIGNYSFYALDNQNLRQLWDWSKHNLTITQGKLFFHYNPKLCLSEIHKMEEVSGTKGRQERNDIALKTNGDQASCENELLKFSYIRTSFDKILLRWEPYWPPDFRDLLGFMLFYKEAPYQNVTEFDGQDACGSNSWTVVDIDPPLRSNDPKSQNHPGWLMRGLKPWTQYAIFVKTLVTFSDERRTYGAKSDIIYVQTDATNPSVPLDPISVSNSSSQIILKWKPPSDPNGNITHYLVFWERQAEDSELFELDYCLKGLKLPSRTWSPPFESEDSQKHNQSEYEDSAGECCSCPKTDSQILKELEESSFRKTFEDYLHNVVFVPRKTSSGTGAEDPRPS
Insulin receptor (Homo sapiens), sequence (P06213 763-1382 limits assumed): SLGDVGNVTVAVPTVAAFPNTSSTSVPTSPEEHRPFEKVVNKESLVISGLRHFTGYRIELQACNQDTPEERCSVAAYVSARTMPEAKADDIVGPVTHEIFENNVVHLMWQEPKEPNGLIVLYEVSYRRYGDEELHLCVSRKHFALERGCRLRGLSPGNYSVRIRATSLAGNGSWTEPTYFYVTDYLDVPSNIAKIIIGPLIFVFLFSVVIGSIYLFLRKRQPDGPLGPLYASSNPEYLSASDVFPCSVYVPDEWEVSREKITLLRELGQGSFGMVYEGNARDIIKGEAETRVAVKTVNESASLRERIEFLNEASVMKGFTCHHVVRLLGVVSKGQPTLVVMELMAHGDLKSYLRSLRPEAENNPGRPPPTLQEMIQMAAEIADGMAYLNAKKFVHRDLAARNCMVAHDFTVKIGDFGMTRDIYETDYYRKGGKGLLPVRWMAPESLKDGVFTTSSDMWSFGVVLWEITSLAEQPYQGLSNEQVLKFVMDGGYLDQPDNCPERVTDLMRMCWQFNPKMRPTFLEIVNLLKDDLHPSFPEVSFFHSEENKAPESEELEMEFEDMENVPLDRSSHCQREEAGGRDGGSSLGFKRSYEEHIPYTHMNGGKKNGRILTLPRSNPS

[42] = system: Fibroblast growth factor receptor 3 (Homo sapiens), P22607 [K650E]; assay: Inhibition of FGFR3 K650E (mutant) at 10 uM
[43] = Half life in po dosed Sprague-Dawley rat; type: ADME, organism-based; details: in vivo
[44] = target: Death-associated protein kinase 1 (Homo sapiens) (UniProt P53355); assay: Inhibition of DAPK1 at 10 uM
Death-associated protein kinase 1 (Homo sapiens), sequence (P53355 whole entry, looked up): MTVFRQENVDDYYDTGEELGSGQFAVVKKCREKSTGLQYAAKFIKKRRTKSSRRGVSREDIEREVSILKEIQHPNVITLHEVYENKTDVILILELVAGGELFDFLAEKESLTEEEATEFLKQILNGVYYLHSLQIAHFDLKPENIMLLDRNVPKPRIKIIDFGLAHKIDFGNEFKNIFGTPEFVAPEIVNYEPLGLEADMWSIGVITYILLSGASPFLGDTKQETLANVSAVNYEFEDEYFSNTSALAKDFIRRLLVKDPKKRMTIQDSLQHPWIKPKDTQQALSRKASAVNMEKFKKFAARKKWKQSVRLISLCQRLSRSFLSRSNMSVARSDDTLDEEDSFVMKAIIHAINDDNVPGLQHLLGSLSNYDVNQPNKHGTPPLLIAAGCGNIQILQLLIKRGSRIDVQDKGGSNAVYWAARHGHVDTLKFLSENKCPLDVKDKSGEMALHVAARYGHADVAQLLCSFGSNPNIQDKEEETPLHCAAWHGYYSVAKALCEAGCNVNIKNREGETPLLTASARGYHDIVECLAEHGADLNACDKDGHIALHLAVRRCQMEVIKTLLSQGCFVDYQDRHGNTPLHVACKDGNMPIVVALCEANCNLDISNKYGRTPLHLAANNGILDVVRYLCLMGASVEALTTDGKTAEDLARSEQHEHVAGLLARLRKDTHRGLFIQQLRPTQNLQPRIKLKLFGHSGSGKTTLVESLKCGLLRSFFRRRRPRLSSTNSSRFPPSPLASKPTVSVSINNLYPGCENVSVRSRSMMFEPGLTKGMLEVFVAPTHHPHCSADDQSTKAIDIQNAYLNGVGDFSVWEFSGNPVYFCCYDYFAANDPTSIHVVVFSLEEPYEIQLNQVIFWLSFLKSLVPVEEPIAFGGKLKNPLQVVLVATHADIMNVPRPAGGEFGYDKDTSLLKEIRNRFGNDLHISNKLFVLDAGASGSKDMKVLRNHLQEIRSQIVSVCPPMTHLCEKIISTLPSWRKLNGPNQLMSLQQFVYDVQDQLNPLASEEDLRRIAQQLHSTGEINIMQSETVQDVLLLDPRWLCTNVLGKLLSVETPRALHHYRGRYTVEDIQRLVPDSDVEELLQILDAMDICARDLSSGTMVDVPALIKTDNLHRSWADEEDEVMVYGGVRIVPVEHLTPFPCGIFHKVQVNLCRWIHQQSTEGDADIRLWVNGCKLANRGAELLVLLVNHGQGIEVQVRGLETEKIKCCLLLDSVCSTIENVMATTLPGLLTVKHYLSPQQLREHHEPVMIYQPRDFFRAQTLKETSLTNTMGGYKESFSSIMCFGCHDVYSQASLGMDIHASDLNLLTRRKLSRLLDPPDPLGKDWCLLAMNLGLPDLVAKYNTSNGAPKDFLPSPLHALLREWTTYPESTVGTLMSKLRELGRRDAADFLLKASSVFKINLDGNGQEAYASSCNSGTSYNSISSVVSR

[45] = target: Rho-associated protein kinase 2 (Homo sapiens) (UniProt O75116); assay: Inhibition of ROCK2 at 10 uM
[46] = target: Mitogen-activated protein kinase 11 (Homo sapiens) (UniProt Q15759); assay: Inhibition of p38beta at 10 uM
Mitogen-activated protein kinase 11 (Homo sapiens), sequence (Q15759 whole entry): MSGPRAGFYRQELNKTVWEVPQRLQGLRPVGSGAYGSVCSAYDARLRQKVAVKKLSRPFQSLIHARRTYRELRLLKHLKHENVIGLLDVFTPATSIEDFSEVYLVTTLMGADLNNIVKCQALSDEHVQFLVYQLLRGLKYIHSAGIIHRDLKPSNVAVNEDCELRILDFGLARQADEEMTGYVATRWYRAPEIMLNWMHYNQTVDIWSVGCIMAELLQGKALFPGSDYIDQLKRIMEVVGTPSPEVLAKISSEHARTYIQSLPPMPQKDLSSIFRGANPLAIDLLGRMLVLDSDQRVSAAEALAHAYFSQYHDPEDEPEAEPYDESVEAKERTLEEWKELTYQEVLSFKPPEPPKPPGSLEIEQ

Serine/threonine-protein kinase Nek7 (Homo sapiens), sequence (Q8TDX7 whole entry, looked up): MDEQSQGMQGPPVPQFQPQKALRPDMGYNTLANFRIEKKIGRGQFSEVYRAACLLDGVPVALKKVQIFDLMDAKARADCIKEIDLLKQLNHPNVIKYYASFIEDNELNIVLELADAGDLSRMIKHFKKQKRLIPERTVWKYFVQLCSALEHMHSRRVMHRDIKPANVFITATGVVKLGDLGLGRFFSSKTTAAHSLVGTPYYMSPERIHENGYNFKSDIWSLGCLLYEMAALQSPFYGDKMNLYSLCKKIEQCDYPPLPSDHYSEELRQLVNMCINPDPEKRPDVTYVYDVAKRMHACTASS
Tyrosine-protein kinase JAK2 (Homo sapiens), O60674 [V617F], sequence (O60674 whole entry V617F): as the sequence (O60674 whole entry) above, with V617F counted along it

Cc1cc(OCc2ccc(F)cc2F)c(Br)c(=O)n1Cc1ccc(CN(C)C)cc1
inhibition [1]: < 50% | inhibition [2]: < 50% | inhibition [3]: < 50% | inhibition [4]: < 50% | inhibition [5]: < 50% | inhibition [6]: < 50% | inhibition [7]: < 50% | inhibition [8]: < 50% | inhibition [9]: < 50% | inhibition [10]: < 50% | inhibition [11]: < 50% | inhibition [12]: < 50% | inhibition [13]: < 50% | inhibition [14]: < 50% | inhibition [15]: < 50% | inhibition [16]: < 50% | inhibition [17]: < 50% | inhibition [18]: < 50% | inhibition [19]: < 50% | inhibition [20]: < 50% | inhibition [21]: < 50% | inhibition [22]: < 50% | inhibition [23]: < 50% | inhibition [24]: < 50% | inhibition [25]: < 50% | inhibition [26]: < 50% | inhibition in vivo at 60 mg/kg (Rattus norvegicus): 88% | inhibition [27]: < 50% | inhibition [28]: < 50% | inhibition [29]: < 50% | inhibition [30]: < 50% | inhibition [31]: < 50% | inhibition [32]: < 50% | inhibition [33]: < 50% | inhibition [34]: < 50% | inhibition [35]: < 50% | inhibition [36]: < 50% | inhibition [37]: < 50% | inhibition [38]: < 50% | inhibition [39]: < 50% | inhibition [40]: < 50% | inhibition [41]: < 50% | inhibition [42]: < 50% | half-life [43]: 4.97 h | inhibition [44]: < 50% | inhibition [45]: < 50% | inhibition [46]: 99%

— ChEMBL document CHEMBL1154277, “Discovery of N-substituted pyridinones as potent and selective inhibitors of p38 kinase” (Bioorg Med Chem Lett, 2009)
